Reference: patent publication US20080249042A1, “All-Trans-Retinol: All-Trans-13,14-Dihydroretinol Saturase and Methods of Its Use” (UNIVERSITY OF WASHINGTON, priority 2004, published 2008)

Key:
[1] = Liver retinoids of Lrat-/- mice 3 h after gavage with all-trans-DROL; type: in vivo, mouse; details: 3 h post-gavage
Text: Metabolism of Retinoids in Vivo. All animal experiments employed procedures approved by the University of Washington and conformed to recommendations of the American Veterinary Medical Association Panel on Euthanasia and recommendations of the Association of Research for Vision and Ophthalmology. Animals were maintained on a 12-h light and 12-h dark cycle. All manipulations were done under dim red or infrared light (>560 nm). Most experiments used 6-12-week-old mice. Lrat−/− mice were genotyped as described previously. Batten, et al. J. Biol. Chem. 279:10422-10432, 2004. Animals were maintained on a control chow diet up to 1 h prior to oral gavage. The appropriate amount of all-trans-ROL palmitate, all-trans-DROL, or all-trans-RA was dissolved in vegetable oil and administered by oral gavage 3 h prior to analysis.
Analysis of Retinoids. Liver (1 g) from retinoid gavaged or naive mice was homogenized in 2 ml of 137 mM NaCl, 2.7 mM KCl, and 10 mM sodium phosphate (pH 7.4) for 30 s using a Polytron homogenizer. 10 μl of 5 M NaOH was added to 3 ml of the ethanolic extract, and the nonpolar retinoids were extracted using 5 ml of hexane. The extraction was repeated, and the organic phases were combined, dried under vacuum, resuspended in hexane, and examined by normal phase HPLC using a normal phase column (Beckman Ultrasphere Si 5μ, 4.6×250 mm). […] The HPLC elution conditions were […], 100% buffer A for 40 min, 100% buffer B for 10 min, and 10 min equilibration in buffer A. The elution profiles of RA and DRA were monitored using an online diode array detector set at 350 and 290 nm, respectively. […] The measured area of absorbance was converted to picomoles based on a calibration of the HPLC columns using a known amount of all-trans-RA or all-trans-ROL (Sigma) and all-trans-DROL or all-trans-DRA (synthetic standards). The extraction efficiency was monitored by spiking a tissue sample with [^3H]RA (PerkinElmer Life Sciences) and monitoring the radioactivity recovered from the HPLC column. […]

RAR/RXR heterodimers = assay: F9-RARE-lacZ DR5 RARE reporter cell assay; details: linear part of the dose-response curve
Protocol: RARE and RXRE Activation Assay. […] The RA-responsive F9 cell line was transfected with a reporter construct of an RARE derived from the human retinoic acid receptor-β gene (RAR-β) placed upstream of the Escherichia coli lacZ gene. […] Cells were grown in L15-CO2 media containing N-3 supplements and antibiotics. […] After 24 h, cells were split into 24-well plates to ensure an equal number of transfected cells in each assay well. Cells were stimulated with appropriate concentrations of all-trans-RA, 9-cis-RA, or all-trans-DRA. After 48 h, the expression of β-galactosidase was assayed as described above.

mouse RetSat = target: T1, mouse RetSat (Mus musculus, UniProt Q64FW2); assay: Saturase activity in homogenized HEKK-RetSat cells; type: biochemical; details: membrane homogenate, 40 μM substrate, 1 hr
T1 construct: expressed in transfected cells
T1 sequence (Q64FW2 26-609): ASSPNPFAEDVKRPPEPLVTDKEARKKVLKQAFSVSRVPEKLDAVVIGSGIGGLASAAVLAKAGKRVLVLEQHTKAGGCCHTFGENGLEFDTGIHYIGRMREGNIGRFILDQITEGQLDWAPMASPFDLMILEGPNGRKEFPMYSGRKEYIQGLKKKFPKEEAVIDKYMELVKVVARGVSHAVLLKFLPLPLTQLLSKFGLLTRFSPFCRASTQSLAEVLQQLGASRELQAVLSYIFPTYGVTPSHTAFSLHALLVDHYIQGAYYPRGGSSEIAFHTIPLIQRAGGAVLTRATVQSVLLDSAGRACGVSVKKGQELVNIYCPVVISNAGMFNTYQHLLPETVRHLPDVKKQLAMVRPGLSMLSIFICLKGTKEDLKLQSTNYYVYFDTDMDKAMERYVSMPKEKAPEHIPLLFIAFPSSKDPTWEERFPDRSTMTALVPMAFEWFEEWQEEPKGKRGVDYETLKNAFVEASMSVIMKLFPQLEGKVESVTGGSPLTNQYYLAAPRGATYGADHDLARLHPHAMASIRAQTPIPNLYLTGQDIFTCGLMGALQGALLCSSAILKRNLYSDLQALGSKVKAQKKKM
Protocol: Enzymatic assays for saturase activity in homogenized cells. Cells were homogenized with 15 mM Tris-HCl, pH 8.0, containing 10 mM dithiothreitol and 0.32 M sucrose. One aliquot of cells was boiled for 10 min at 95° C. as a negative control. Cell aliquots of 200 μl were supplemented with 1 mM ATP and 40 μM all-trans-retinol final concentrations. Some aliquots were also supplemented with 0.4 mM NADH or 0.4 mM NADPH to regenerate the redox state of the reaction. The cell homogenate was incubated with retinol substrate with shaking at 37° C. for 1 hr in the dark. This was followed by the extraction of retinoids with one volume of methanol and two volumes of hexane. The organic phase was dried and resuspended in hexane and then examined by normal-phase HPLC.

Compound	Level in liver after gavage with all-trans-DROL [1]	Fold less effective than all-trans-RA in activating DR5-response elements (RAR/RXR heterodimers)	all-trans-13,14-dihydroretinol produced (mouse RetSat)
CC1=C(/C=C/C(C)=C/C=C/C(C)CC(=O)O)C(C)(C)CCC1 (stereo not drawn) [all-trans-DRA, all-trans-13,14-dihydroretinoic acid]	significant levels	about 100 fold	–
CC1=C(/C=C/C(C)=C/C=C/C(C)=C/CO)C(C)(C)CCC1 [all-trans-ROL, all-trans-retinol]	–	–	little
